We go through 19 compounds from PubChem BioAssay AID1259408 (Genetic Toxicology Data Bank (GENE-TOX), 2018).

This series deals with GENE-TOX genotoxicity assays, various organisms and cells. The series is described as follows: GENE-TOX mutagenicity studies. Conditions: for call: Assay Type: In vivo carcinogenicity studies.
The mark [1] stands for this setting: Species/Cell Type: Human diploid fibroblasts, Assay Type: Unscheduled DNA synthesis (UDS) in vitro, DNA effects, Assay Code: UDH-, Evaluation Type: Evaluation A (Pre-1980).
Where [2] appears, read: Species/Cell Type: Saccharomyces cerevisiae, Assay Type: Mitotic recombination or gene conversion, Assay Code: YEC+, Evaluation Type: Evaluation A (Pre-1980).
Setting [3] is: Species/Cell Type: Saccharomyces cerevisiae, Assay Type: Mitotic recombination or gene conversion, Assay Code: YEH-, Evaluation Type: Evaluation A (Pre-1980).
Setting [4] is: Species/Cell Type: Bacillus subtilis (H17 vs M45), Assay Type: Rec-assay, spot test, DNA effects (bacterial DNA repair), Assay Code: REW+, Evaluation Type: Evaluation A (Pre-1980).
[5] abbreviates: Species/Cell Type: Human lymphocytes, Assay Type: Sister-chromatid exchange (SCE) in vitro, Assay Code: SCLT, Evaluation Type: Evaluation B (Post-1980).
[6] abbreviates: Species/Cell Type: Human, Assay Type: Sister-chromatid exchange (SCE) in vitro, Assay Code: SC1T, Evaluation Type: Evaluation B (Post-1980).
[7] abbreviates: Species/Cell Type: Nonhuman, Assay Type: Sister-chromatid exchange (SCE) in vitro, Assay Code: SC2+D, Dose Response: With dose response, Evaluation Type: Evaluation B (Post-1980).
Where [8] appears, read: Species/Cell Type: Salmonella typhimurium (one or more of the five standard strains: TA98, TA100, TA1535, TA1537, and TA1538), Assay Type: Histidine reverse gene mutation, Ames assay, Assay Code: SAL+, Evaluation Type: Evaluation A (Pre-1980).
Where [9] appears, read: Species/Cell Type: Drosophila melanogaster, Assay Type: Sex-linked recessive lethal gene mutation, Assay Code: SRL+, Evaluation Type: Evaluation A (Pre-1980).
Setting [10] is: Species/Cell Type: Saccharomyces cerevisiae, Assay Type: Mitotic recombination or gene conversion, Assay Code: YEC-, Evaluation Type: Evaluation A (Pre-1980).
[11] abbreviates: Species/Cell Type: Bacillus subtilis (H17 vs M45), Assay Type: Rec-assay, spot test, DNA effects (bacterial DNA repair), Assay Code: REW-, Evaluation Type: Evaluation A (Pre-1980).

Activity calls are given as the source filed them. No rule for the calls is given here.

As to `S=C([S-])NCCNC(=S)[S-].[Zn+2]`, the mutagenic call under setting [1] is “inactive; negative”, the mutagenic call under setting [2] is “active; positive” and the mutagenic call under setting [3] was “inactive; negative”.

For `Cc1ncc(COP(=O)(O)O)c(C)c1O`, the mutagenic call is, setting by setting: (Species/Cell Type: Human lymphocytes, Assay Type: Sister-chromatid exchange (SCE) in vitro, Assay Code: SCL+D, Dose Response: With dose response, Evaluation Type: Evaluation B (Post-1980)) “active; positive”; (Species/Cell Type: Human, Assay Type: Sister-chromatid exchange (SCE) in vitro, Assay Code: SC1+D, Dose Response: With dose response, Evaluation Type: Evaluation B (Post-1980)) “active; positive”.

Regarding `COP(=O)(OC)OC=C(Cl)Cl`, the mutagenic call is “active; positive” (Species/Cell Type: Allium cepa, Assay Type: Chromosome aberrations, Assay Code: ALC+D, Dose Response: With dose response, Evaluation Type: Evaluation A (Pre-1980)); “active; positive” under setting [4]; “inactive; negative” (Species/Cell Type: Drosophila melanogaster, Assay Type: Sex-linked recessive lethal gene mutation, Assay Code: SRL-, Evaluation Type: Evaluation A (Pre-1980)); “active; positive” (Species/Cell Type: Escherichia coli WP2, Assay Type: Tryptophan reverse gene mutation, Assay Code: WP2+, Evaluation Type: Evaluation A (Pre-1980)); “active; positive” (Species/Cell Type: Escherichia coli WP2 UVRA, Assay Type: Tryptophan reverse gene mutation, Assay Code: WPU+, Evaluation Type: Evaluation A (Pre-1980)); “active; positive” (Species/Cell Type: Escherichia coli polA (W3119 vs P3478), Assay Type: Rec-assay, DNA effects (bacterial DNA repair), Assay Code: RE1+, Evaluation Type: Evaluation A (Pre-1980)). For the same compound, the mutagenic call is “inactive; negative” (Species/Cell Type: Human lymphocytes, Assay Type: Sister-chromatid exchange (SCE) in vitro, Assay Code: SCL-, Evaluation Type: Evaluation A (Pre-1980)); “no conclusion” under setting [5]; “inactive; negative” (Species/Cell Type: Human, Assay Type: Sister-chromatid exchange (SCE) in vitro, Assay Code: SC1-, Evaluation Type: Evaluation A (Pre-1980)); “no conclusion” under setting [6]; “inactive; negative” (Species/Cell Type: Mammalian germ cells, Sex: Male, Assay Type: Chromosome aberrations in vivo, Assay Code: CY9-, Evaluation Type: Evaluation A (Pre-1980)); “no conclusion” (Species/Cell Type: Mammalian polychromatic erythrocytes, Assay Type: Micronucleus test, chromosome aberrations, Assay Code: MNTT, Evaluation Type: Evaluation B (Post-1980)). Also, the mutagenic call was “no conclusion” (Species/Cell Type: Mouse, Sex: Male, Assay Type: Sperm morphology, Assay Code: SPIT, Evaluation Type: Evaluation A (Pre-1980)); “inactive; negative” (Species/Cell Type: Nonhuman bone marrow, Assay Type: Chromosome aberrations, in vivo, Assay Code: CY#-, Evaluation Type: Evaluation A (Pre-1980)); “active; positive” under setting [7]; “inactive; negative” (Species/Cell Type: Nonhuman, Assay Type: Sister-chromatid exchange (SCE) in vivo, Assay Code: SC3-, Evaluation Type: Evaluation B (Post-1980)); “no conclusion” (Species/Cell Type: Rodents, Sex: Male, Assay Type: Dominant lethal test, Assay Code: DLTT, Evaluation Type: Evaluation A (Pre-1980)); “active; positive” under setting [2]. Also, the mutagenic call is, setting by setting: under setting [8], “active; positive”; (Species/Cell Type: Salmonella typhimurium, Serratia marcesens, Saccharomyces cerevisiae, Assay Type: Forward and reverse gene mutation, mitotic recombination and gene conversion, DNA effects, host-mediated assay, Assay Code: HM5-, Evaluation Type: Evaluation A (Pre-1980)) “inactive; negative”. In addition, the call (Species/Cell Type: Nonhuman, Assay Code: CCGT, Evaluation Type: Evaluation A (Pre-1980)) is given as “no conclusion”.

In the case of `C=CC(O)c1ccc(OC)cc1` (configuration not stated), the mutagenic call (Species/Cell Type: Salmonella typhimurium (one or more of the five standard strains: TA98, TA100, TA1535, TA1537, and TA1538), Assay Type: Histidine reverse gene mutation, Ames assay, Assay Code: SALT, Evaluation Type: Evaluation A (Pre-1980)) is “no conclusion”.

`O=[N+]([O-])O.O=[N+]([O-])O.[Cd+2]`: the mutagenic call (Species/Cell Type: Nonhuman, Assay Type: Sister-chromatid exchange (SCE) in vitro, Assay Code: SC2-, Evaluation Type: Evaluation B (Post-1980)) is “inactive; negative”.

In the case of `Cc1ccc2nc3ccccc3cc2c1`, the mutagenic call (Species/Cell Type: Saccharomyces cerevisiae, Assay Type: Forward gene mutation, Assay Code: YEFT, Evaluation Type: Evaluation A (Pre-1980)) is reported as “no conclusion”.

With `CCOS(=O)(=O)CC`, the mutagenic call is “active; positive” (Species/Cell Type: Arabidopsis species, Assay Type: Gene mutation, Assay Code: ARM+, Evaluation Type: Evaluation A (Pre-1980)); “inactive; negative” (Species/Cell Type: Hordeum vulgare (barley), Assay Type: Chromosome aberrations, Assay Code: HOC-, Evaluation Type: Evaluation A (Pre-1980)); “active; positive” (Species/Cell Type: Hordeum vulgare (barley), Assay Type: Gene mutation, Assay Code: HOM+D, Dose Response: With dose response, Evaluation Type: Evaluation A (Pre-1980)).

On to `CN(C)CCOc1ccc2c(c1)CC/C(=C\c1ncc([N+](=O)[O-])n1C)C2=O`, for which the mutagenic call under setting [9] was “active; positive” and the mutagenic call under setting [2] is “active; positive”.

Turning to `CCC(C)c1cc([N+](=O)[O-])cc([N+](=O)[O-])c1OC(C)=O` (configuration not stated), the mutagenic call under setting [10] is “inactive; negative”.

As to `NC(=O)c1ccc(/C=C/c2ccc([N+](=O)[O-])o2)cc1`, the mutagenic call reads like this: under setting [9], “active; positive”; (Species/Cell Type: Neurospora crassa, Assay Type: Forward gene mutation, Assay Code: NEF+, Evaluation Type: Evaluation A (Pre-1980)) “active; positive”; (Species/Cell Type: Neurospora crassa, Assay Type: Reverse gene mutation, Assay Code: NER+, Evaluation Type: Evaluation A (Pre-1980)) “active; positive”; (Species/Cell Type: Saccharomyces cerevisiae, Assay Type: Mitotic recombination or gene conversion, Assay Code: YEH+, Evaluation Type: Evaluation A (Pre-1980)) “active; positive”; (Species/Cell Type: Saccharomyces cerevisiae, Assay Type: Reverse gene mutation, Assay Code: YER+, Evaluation Type: Evaluation A (Pre-1980)) “active; positive”.

Regarding `CCC(Cc1c(I)cc(I)c(N)c1I)C(=O)O` (configuration not stated), the mutagenic call runs as follows: under setting [5], “no conclusion”; under setting [6], “no conclusion”.

On to `[Cl][Cu]`, for which the mutagenic call under setting [11] is “inactive; negative”.

On to `CN(C)c1ccc(C(=C2C=CC(=[N+](C)C)C=C2)c2c(O)c(S(=O)(=O)[O-])cc3cc(S(=O)(=O)O)ccc23)cc1`, for which, under setting [10], the mutagenic call was “inactive; negative”.

Consider `O=[Se](O)O`, for which the mutagenic call by setting is: under setting [4], “active; positive”; under setting [11], “inactive; negative”; (Species/Cell Type: Human lymphocytes, Assay Type: Sister-chromatid exchange (SCE) in vitro, Assay Code: SCL+D, Dose Response: With dose response, Evaluation Type: Evaluation A (Pre-1980)) “active; positive”; (Species/Cell Type: Human lymphocytes, Assay Type: Sister-chromatid exchange (SCE) in vivo, Assay Code: SCY+, Evaluation Type: Evaluation B (Post-1980)) “active; positive”; (Species/Cell Type: Human, Assay Type: Sister-chromatid exchange (SCE) in vitro, Assay Code: SC1+D, Dose Response: With dose response, Evaluation Type: Evaluation A (Pre-1980)) “active; positive”; under setting [7], “active; positive”. Moreover, the mutagenic call (Species/Cell Type: Nonhuman, Assay Type: Sister-chromatid exchange (SCE) in vivo, Assay Code: SC3+D, Dose Response: With dose response, Evaluation Type: Evaluation B (Post-1980)) was “active; positive” and the mutagenic call under setting [8] was “active; positive”.

Turning to `CCC(=O)Nc1ccc(Cl)c(Cl)c1`, the mutagenic call runs as follows: (Species/Cell Type: Aspergillus nidulans, Assay Type: Forward gene mutation, Assay Code: ASF-, Evaluation Type: Evaluation A (Pre-1980)) “inactive; negative”; under setting [4], “active; positive”; (Species/Cell Type: Escherichia coli polA (W3119 vs P3478), Assay Type: Rec-assay, DNA effects (bacterial DNA repair), Assay Code: RE1-, Evaluation Type: Evaluation A (Pre-1980)) “inactive; negative”; under setting [1], “inactive; negative”; under setting [3], “inactive; negative”; (Species/Cell Type: Salmonella typhimurium (one or more of the five standard strains: TA98, TA100, TA1535, TA1537, and TA1538), Assay Type: Histidine reverse gene mutation, Ames assay, Assay Code: SAL-, Evaluation Type: Evaluation A (Pre-1980)) “inactive; negative”.

Regarding `CC1CN(N=O)CCN1N=O` (configuration not stated), the mutagenic call (Species/Cell Type: Salmonella typhimurium (one or more of the five standard strains: TA98, TA100, TA1535, TA1537, and TA1538), Assay Type: Histidine reverse gene mutation, Ames assay, Assay Code: SAL+*, Activation: With metabolic activation, Evaluation Type: Evaluation A (Pre-1980)) was “active; positive”.

In the case of `Cc1cc(Cc2ccc(N)c(C)c2)ccc1N`, the call (Species/Cell Type: Nonhuman, Assay Code: CCG+, Evaluation Type: Evaluation A (Pre-1980)) was “active; positive”.

Regarding `Cc1cccc(N(C)C(=S)Oc2ccc3ccccc3c2)c1`, the mutagenic call (Species/Cell Type: Neurospora crassa, Assay Type: Aneuploidy, chromosome aberrations, Assay Code: NEN-, Evaluation Type: Evaluation A (Pre-1980)) was “inactive; negative”.

Turning to `c1ccc2cc(C3CO3)ccc2c1` (configuration not stated), the mutagenic call under setting [8] was “active; positive”.
